According to patent US11753395B2 (Kinnate Biopharma Inc., priority 2021, dated 2023):

How the values were obtained:
MET = target: T1, MET (Homo sapiens, UniProt P08581); assay: MET Mobility Shift Assay; details: biochemical assay IC50; 100 μM ATP, 60 minute kinase reaction
T1 construct: purchased Carna Biosciences 08-151
Method: (§1) Small molecule inhibition of MET kinase activity was evaluated using a fluorescence-based microfluidic mobility shift assay. MET catalyzes the production of ADP from ATP during phosphoryl transfer to the substrate peptide, FLPeptide30 (5-FAM-KKKKEEIYFFF-CONH2) (Perkin Elmer, 760430). MET enzme (Carna Biosciences, 08-151) at 0.625 nM was prepared with 10 mM MgCl2 and 1.5 μM substrate peptide in a buffer containing 50 mM HEPES, 1 mM EGTA, 0.01% Brij-35, 0.05% BSA, and 2 mM DTT and pre-incubated at room temperature for 30 min prior to the start of the reaction. 100 μM ATP was added to start the reaction. The mobility shift assay electrophoretically separates the fluorescently labeled peptides (substrate and phosphorylated product) following the 60 minute kinase reaction. The reaction was terminated by addition of 0.5 M EDTA. Both substrate and product were measured and the ratio of these values used to generate % conversion of substrate to product by the LabChip EZ reader (Perkin Elmer). ICso values were calculated using the inhibition of conversion ratio using Dotmatics Knowledge Solutions Studies curve fitting environment (Dotmatics, Bishops Stortford, UK, CM23) and are presented in Table 2.

MET D1228N = target: T2, MET D1228N (Homo sapiens, UniProt P08581, D1228N); assay: MET D1228N Mobility Shift Assay; details: biochemical assay IC50; 100 μM ATP, 60 minute kinase reaction
T2 construct: purchased Signalchem M52-12IG
Method: as §1, with “MET D1228N” for “MET”, “a fluorescence -based” for “a fluorescence-based”, “FLPeptide30 (5-FAM-KKKKEEIYFFF -CONH2)” for “FLPeptide30 (5-FAM-KKKKEEIYFFF-CONH2)”, “MET D1228N enzyme (Signalchem, M52-12IG)” for “MET enzme (Carna Biosciences, 08-151)”, “at 0.313” for “at 0.625”

Ba/F3-TPR-MET cells = target: T3, Ba/F3-TPR-MET cells (Homo sapiens, UniProt P08581); assay: CellTiter-Glo Cell Viability Assay, Ba/F3-TPR-MET; format: cell-based; details: 72 hours
T3 construct: fused on or other part: P12270 (Nucleoprotein TPR)
Method: (§2) Ba/F3-TPR-MET and Ba/F3-TPR-MET-D1228N cells were seeded at 3000 cells per well in a 96 well plate in 90 μL growth media and allowed to incubate overnight at 37° C. with 5% CO2. The following day, compounds were serially diluted from a 10 mM top dose for a 9-point 3-fold dilution curve in DMSO. Following a 100-fold dilution in growth media, a further 10-fold dilution was made into the cell plate for a final volume of 100 μL and 0.1% DMSO. Compounds and cells were incubated together for 72 hours at 37° C. with 5% CO2. The CellTiter-Glo® 2.0 Assay determines the number of viable cells in culture by quantifying ATP, which indicates the presence of metabolically active cells. Luminescence readout is directly proportional to the number of viable cells in culture. CellTiter-Glo reagent (Promega, G9243) and cell plates were allowed to equilibrate to room temperature for at least 15 min, then 100 μL of CellTiter-Glo was added to each well for a 1:1 ratio of reagent to media. Samples were placed on a shaker for 2 min prior to a 30 min incubation at room temperature protected from light. Luminescence was read on a Perkin Elmer Envision plate reader 2105 and used to calculate ICso values within the Dotmatics Knowledge Solutions Studies curve fitting environment (Dotmatics, Bishops Stortford, UK, CM23) and are presented in Table 2.

[1] = target: T4, Ba/F3-TPR-MET-D1228N cells (Homo sapiens, UniProt P08581, D1228N, cells depend on it); assay: CellTiter-Glo Cell Viability Assay, Ba/F3-TPR-MET-D1228N; format: cell-based; details: 72 hours
T4 construct: fused on or other part: P12270 (Nucleoprotein TPR)
Method: as §2

T2 sequence (P08581 25-1390 D1228N): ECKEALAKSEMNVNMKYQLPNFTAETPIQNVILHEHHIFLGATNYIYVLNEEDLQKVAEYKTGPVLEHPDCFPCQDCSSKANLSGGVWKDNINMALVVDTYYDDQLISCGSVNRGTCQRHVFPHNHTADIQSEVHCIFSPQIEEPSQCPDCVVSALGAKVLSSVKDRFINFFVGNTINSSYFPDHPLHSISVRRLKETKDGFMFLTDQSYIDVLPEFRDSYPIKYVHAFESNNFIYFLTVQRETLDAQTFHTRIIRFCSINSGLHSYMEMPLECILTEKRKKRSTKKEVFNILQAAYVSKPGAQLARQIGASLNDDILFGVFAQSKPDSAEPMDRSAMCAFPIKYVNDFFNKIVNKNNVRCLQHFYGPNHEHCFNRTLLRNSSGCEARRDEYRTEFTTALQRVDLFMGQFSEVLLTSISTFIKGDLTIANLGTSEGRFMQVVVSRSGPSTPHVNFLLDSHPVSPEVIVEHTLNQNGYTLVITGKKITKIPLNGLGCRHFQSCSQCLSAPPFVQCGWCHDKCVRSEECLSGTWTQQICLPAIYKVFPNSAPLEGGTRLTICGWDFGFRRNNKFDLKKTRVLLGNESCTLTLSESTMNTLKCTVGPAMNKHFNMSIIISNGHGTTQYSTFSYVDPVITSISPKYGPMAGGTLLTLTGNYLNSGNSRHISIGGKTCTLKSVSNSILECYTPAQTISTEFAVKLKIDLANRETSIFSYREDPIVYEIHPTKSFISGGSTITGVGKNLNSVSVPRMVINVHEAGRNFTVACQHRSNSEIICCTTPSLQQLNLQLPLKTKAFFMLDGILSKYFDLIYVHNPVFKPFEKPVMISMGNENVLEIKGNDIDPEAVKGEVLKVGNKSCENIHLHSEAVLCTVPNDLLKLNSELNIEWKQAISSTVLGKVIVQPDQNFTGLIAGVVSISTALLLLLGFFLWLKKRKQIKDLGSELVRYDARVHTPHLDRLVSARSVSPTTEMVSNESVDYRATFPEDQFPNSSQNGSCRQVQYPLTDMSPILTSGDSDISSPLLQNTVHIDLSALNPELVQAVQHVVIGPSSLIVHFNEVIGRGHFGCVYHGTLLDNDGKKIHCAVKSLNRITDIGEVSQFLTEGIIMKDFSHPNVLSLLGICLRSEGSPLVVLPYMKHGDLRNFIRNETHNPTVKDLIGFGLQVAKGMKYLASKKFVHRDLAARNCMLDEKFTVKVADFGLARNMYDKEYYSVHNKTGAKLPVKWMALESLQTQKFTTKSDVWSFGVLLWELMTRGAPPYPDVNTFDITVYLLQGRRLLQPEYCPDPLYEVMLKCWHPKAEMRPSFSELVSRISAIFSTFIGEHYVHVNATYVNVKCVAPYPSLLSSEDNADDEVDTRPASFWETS
T4 sequence (P08581 whole entry D1228N, the tested form may be a part): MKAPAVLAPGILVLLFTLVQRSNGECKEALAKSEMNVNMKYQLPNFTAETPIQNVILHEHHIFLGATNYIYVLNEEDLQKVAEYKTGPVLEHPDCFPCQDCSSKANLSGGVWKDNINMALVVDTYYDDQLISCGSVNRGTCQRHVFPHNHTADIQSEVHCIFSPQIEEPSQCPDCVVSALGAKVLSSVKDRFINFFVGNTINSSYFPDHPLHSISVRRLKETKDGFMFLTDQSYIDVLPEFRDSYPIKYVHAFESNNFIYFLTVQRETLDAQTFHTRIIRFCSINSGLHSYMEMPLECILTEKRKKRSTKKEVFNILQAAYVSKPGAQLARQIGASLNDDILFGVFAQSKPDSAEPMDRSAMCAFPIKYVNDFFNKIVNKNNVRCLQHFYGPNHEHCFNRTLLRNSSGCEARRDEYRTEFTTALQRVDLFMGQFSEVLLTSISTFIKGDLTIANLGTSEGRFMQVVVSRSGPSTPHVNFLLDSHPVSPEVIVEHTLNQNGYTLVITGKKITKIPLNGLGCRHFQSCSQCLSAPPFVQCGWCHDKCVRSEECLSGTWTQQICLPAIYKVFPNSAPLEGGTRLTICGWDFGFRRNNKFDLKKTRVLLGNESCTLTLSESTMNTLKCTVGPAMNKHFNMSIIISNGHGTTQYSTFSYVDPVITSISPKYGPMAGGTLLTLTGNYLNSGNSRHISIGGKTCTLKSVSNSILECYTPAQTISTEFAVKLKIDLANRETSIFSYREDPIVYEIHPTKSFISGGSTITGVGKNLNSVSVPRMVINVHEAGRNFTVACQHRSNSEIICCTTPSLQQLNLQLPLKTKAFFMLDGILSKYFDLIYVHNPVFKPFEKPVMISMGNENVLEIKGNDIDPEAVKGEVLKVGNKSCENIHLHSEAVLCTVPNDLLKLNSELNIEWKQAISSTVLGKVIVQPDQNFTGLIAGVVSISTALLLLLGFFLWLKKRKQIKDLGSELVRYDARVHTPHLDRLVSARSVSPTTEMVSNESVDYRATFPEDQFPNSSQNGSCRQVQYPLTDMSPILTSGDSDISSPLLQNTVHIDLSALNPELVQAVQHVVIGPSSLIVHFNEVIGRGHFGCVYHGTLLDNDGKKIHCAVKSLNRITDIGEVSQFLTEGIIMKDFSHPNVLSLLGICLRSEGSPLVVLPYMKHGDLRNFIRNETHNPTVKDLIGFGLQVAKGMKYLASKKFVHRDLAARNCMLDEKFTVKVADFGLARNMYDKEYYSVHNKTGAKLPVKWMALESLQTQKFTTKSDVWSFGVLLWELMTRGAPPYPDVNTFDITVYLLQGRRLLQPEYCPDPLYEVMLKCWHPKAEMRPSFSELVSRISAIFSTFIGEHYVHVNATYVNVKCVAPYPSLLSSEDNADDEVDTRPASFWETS
T3 sequence (P08581 whole entry, change not shown, the tested form may be a part): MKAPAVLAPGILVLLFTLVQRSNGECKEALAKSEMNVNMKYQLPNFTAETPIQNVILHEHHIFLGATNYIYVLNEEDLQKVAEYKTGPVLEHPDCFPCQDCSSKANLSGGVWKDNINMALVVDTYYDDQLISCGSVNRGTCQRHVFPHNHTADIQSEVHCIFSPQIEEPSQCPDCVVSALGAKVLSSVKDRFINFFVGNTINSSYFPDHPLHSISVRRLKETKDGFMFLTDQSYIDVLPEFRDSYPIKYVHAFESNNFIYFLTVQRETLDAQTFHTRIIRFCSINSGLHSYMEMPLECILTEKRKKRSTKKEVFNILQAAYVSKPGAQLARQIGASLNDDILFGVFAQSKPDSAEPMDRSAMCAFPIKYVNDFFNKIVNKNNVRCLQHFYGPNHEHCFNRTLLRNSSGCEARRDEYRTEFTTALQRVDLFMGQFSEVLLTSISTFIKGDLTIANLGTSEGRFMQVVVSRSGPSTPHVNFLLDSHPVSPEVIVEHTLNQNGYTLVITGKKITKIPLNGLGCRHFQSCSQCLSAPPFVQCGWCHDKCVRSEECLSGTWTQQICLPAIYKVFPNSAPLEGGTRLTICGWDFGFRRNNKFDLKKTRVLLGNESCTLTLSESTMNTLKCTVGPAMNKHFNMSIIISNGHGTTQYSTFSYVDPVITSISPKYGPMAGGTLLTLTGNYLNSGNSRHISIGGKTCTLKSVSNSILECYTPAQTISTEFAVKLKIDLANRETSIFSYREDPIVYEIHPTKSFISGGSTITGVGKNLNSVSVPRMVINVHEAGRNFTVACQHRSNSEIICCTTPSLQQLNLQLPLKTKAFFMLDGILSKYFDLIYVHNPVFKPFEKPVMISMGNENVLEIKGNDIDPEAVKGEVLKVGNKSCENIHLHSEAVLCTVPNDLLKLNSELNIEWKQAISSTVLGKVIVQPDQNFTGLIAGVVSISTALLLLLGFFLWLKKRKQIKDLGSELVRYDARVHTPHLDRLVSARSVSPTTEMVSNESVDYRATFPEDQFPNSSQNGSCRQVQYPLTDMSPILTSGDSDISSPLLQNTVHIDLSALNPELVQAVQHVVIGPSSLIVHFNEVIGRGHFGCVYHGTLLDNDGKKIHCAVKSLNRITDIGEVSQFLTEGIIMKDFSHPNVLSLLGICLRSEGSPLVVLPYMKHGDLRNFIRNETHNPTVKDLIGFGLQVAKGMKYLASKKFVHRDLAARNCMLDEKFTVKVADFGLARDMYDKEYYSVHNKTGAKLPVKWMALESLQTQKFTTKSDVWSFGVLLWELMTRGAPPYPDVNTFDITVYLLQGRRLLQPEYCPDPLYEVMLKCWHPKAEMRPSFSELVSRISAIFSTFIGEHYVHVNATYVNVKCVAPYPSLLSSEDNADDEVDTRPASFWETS

IC50 (MET) [nM] | IC50 (MET D1228N) [nM] | SMILES | EC50 (Ba/F3-TPR-MET cells) [nM] | EC50 [1] [nM]
≤ 100 | ≤ 100 | CNCCCOc1cc2nccc(Nc3c(F)cc(NC(=O)c4cnccc4OC)cc3F)c2cc1OC [Example 19, N-(3,5-difluoro-4-((6-methoxy-7-(3-(methylamino)propoxy)quinolin-4-yl)amino)phenyl)-4-methoxypyridine-3-carboxamide] | > 10000 | > 10000
≤ 100 | ≤ 100 | CNCCCOc1cc2nccc(Oc3c(F)cc(NC(=O)c4c(OC)ccnc4F)cc3F)c2cc1OC [Example 20, N-(3,5-difluoro-4-((6-methoxy-7-(3-(methylamino)propoxy)quinolin-4-yl)oxy)phenyl)-2-fluoro-4-methoxypyridine-3-carboxamide] | ≤ 100 | ≤ 100
≤ 100 | ≤ 100 | CCOc1ccncc1C(=O)Nc1cc(F)c(Oc2ccnc3cc(OCCCNC)c(OC)cc23)c(F)c1 [Example 21, N-(3,5-difluoro-4-((6-methoxy-7-(3-(methylamino)propoxy)quinolin-4-yl)oxy)phenyl)-4-ethoxypyridine-3-carboxamide] | 100 to 1000 | 100 to 1000
≤ 100 | ≤ 100 | CNCCCOc1cc2nccc(Oc3cc(F)c(NC(=O)c4cnccc4OC)cc3F)c2cc1OC [Example 22, N-[2,5-difluoro-4-({6-methoxy-7-[3-(methylamino)propoxy]quinolin-4-yl}oxy)phenyl]-4-methoxypyridine-3-carboxamide] | 100 to 1000 | 100 to 1000
≤ 100 | ≤ 100 | CCOc1ccncc1C(=O)Nc1cc(F)c(Oc2ccnc3cc(OCCCN(C)C)c(OC)cc23)cc1F [Example 23, N-(4-((7-(3-(dimethylamino)propoxy)-6-methoxyquinolin-4-yl)oxy)-2,5-difluorophenyl)-4-ethoxypyridine-3-carboxamide] | 100 to 1000 | ≤ 100
≤ 100 | ≤ 100 | CNCCOc1cc2nccc(Oc3cc(F)c(NC(=O)c4cnccc4OC)cc3F)c2cc1OC [Example 24, N-[2,5-difluoro-4-({6-methoxy-7-[2-(methylamino)ethoxy]quinolin-4-yl}oxy)phenyl]-4-methoxypyridine-3-carboxamide] | 100 to 1000 | ≤ 100
≤ 100 | ≤ 100 | CNCCOc1cc2nccc(Oc3cc(F)c(NC(=O)c4c(OC)ccnc4F)cc3F)c2cc1OC [Example 25, N-[2,5-difluoro-4-({6-methoxy-7-[2-(methylamino)ethoxy]quinolin-4-yl}oxy)phenyl]-2-fluoro-4-methoxypyridine-3-carboxamide] | 100 to 1000 | 100 to 1000
≤ 100 | ≤ 100 | COc1cc2c(Oc3cc(F)c(NC(=O)c4cnccc4OC)cc3F)ccnc2cc1OCCCN1CCOCC1 [Example 27, N-[2,5-difluoro-4-({6-methoxy-7-[3-(morpholin-4-yl)propoxy]quinolin-4-yl}oxy)phenyl]-4-methoxypyridine-3-carboxamide] | 100 to 1000 | 100 to 1000
≤ 100 | ≤ 100 | CCOc1ccncc1C(=O)Nc1cc(F)c(Oc2ccnc3cc(OCCCN4CCOCC4)c(OC)cc23)c(F)c1 [Example 28, N-(3,5-difluoro-4-((6-methoxy-7-(3-morpholinopropoxy)quinolin-4-yl)oxy)phenyl)-4-ethoxypyridine-3-carboxamide] | ≤ 100 | ≤ 100
≤ 100 | ≤ 100 | COc1cc2c(Oc3c(F)cc(NC(=O)c4cnccc4OC)cc3F)ccnc2cc1OCCN1CCOCC1 [Example 29, N-[3,5-difluoro-4-({6-methoxy-7-[2-(morpholin-4-yl)ethoxy]quinolin-4-yl}oxy)phenyl]-4-methoxypyridine-3-carboxamide] | ≤ 100 | ≤ 100
≤ 100 | ≤ 100 | COc1cc2c(Oc3c(F)cc(NC(=O)c4cnccc4OC)cc3F)ccnc2cc1OCCCN1CCOCC1 [Example 30, N-(3,5-difluoro-4-((6-methoxy-7-(3-morpholinopropoxy)quinolin-4-yl)oxy)phenyl)-4-methoxypyridine-3-carboxamide] | ≤ 100 | ≤ 100
≤ 100 | ≤ 100 | COc1cc2c(Oc3cc(F)c(NC(=O)c4cnc(N)cc4OC)cc3F)ccnc2cc1OCCCN1CCOCC1 [Example 31, 6-amino-N-(2,5-difluoro-4-((6-methoxy-7-(3-morpholinopropoxy)quinolin-4-yl)oxy)phenyl)-4-methoxypyridine-3-carboxamide] | 100 to 1000 | 100 to 1000
≤ 100 | ≤ 100 | CCOc1cc(N)ncc1C(=O)Nc1cc(F)c(Oc2ccnc3cc(OCCCN4CCOCC4)c(OC)cc23)cc1F [Example 32, 6-amino-N-[2,5-difluoro-4-({6-methoxy-7-[3-(morpholin-4-yl)propoxy]quinolin-4-yl}oxy)phenyl]-4-ethoxypyridine-3-carboxamide] | 100 to 1000 | 100 to 1000
≤ 100 | ≤ 100 | COc1cc2nccc(Oc3c(F)cc(NC(=O)c4cnccc4OC)cc3F)c2cc1OC [Example 34, N-(4-((6,7-dimethoxyquinolin-4-yl)oxy)-3,5-difluorophenyl)-4-methoxypyridine-3-carboxamide] | 100 to 1000 | ≤ 100
≤ 100 | ≤ 100 | COc1ccc2c(Oc3c(F)cc(NC(=O)c4cnccc4OC)cc3F)ccnc2c1 [Example 35, N-{3,5-difluoro-4-[(7-methoxyquinolin-4-yl)oxy]phenyl}-4-methoxypyridine-3-carboxamide] | 100 to 1000 | 100 to 1000
≤ 100 | ≤ 100 | COc1cc2nccc(Oc3c(F)cc(NC(=O)c4cnccc4OC)cc3F)c2cn1 [Example 36, N-{3,5-difluoro-4-[(7-methoxy-1,6-naphthyridin-4-yl)oxy]phenyl}-4-methoxypyridine-3-carboxamide] | 100 to 1000 | 100 to 1000
≤ 100 | ≤ 100 | COc1cc2c(Oc3c(F)cc(NC(=O)c4cnccc4OC)cc3F)ccnc2cc1OC(F)(F)F [Example 37, N-(3,5-difluoro-4-((6-methoxy-7-(trifluoromethoxy)quinolin-4-yl)oxy)phenyl)-4-methoxypyridine-3-carboxamide] | 100 to 1000 | 100 to 1000
≤ 100 | ≤ 100 | COc1cc2c(Oc3c(F)cc(NC(=O)c4cnccc4OC)cc3F)ccnc2cc1OC(F)F [Example 38, N-(4-((7-(difluoromethoxy)-6-methoxyquinolin-4-yl)oxy)-3,5-difluorophenyl)-4-methoxypyridine-3-carboxamide] | > 10000 | > 10000
≤ 100 | ≤ 100 | COc1cc2c(Oc3c(F)cc(NC(=O)c4cnccc4OC)cc3F)ccnc2cc1OCC(C)(C)O [Example 39, N-(3,5-difluoro-4-((7-(2-hydroxy-2-methylpropoxy)-6-methoxyquinolin-4-yl)oxy)phenyl)-4-methoxypyridine-3-carboxamide] | 100 to 1000 | ≤ 100
